Here are results for 7 molecules from ChEMBL document CHEMBL1201862, “PubChem BioAssay data set” (2004).

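Interpolation was linear, between the two tested concentrations surrounding the appropriate level; five concentrations were tested over 48 hours in 96-well plates. The concentration for 50% growth inhibition is given as GI50.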 The source made the active and inactive calls. Rule as the data show it: active = GI50 up to about 1.1 µM and inactive = higher. Where only a bound is given, the exact number is not on record here.

Some test systems named below: MCF7; DU-145; OVCAR-4; NCI-H460; RXF 393; SF-539; SF-295; SK-OV-3; MDA-N; MDA-MB-435; NCI-H23; SN12C; CCRF-CEM; U-251; OVCAR-8; HCT-116; PC-3; Malme-3M; SNB-19; UACC-62.
Holding throughout (assay): NCI anticancer screen, dose series, 48 h

As for `CC12OC(=O)[C@@]3(O)CCC4C(C[C@H]5O[C@]56CC=CC(=O)[C@]46C)C45OC[C@H]6C(=O)O[C@@H]1C[C@@]6(C)[C@H](C4=O)C23O5` (stereo not given in full), the GI50 in the experiment with MCF7 is 0.578 µM (active); in the experiment on DU-145, 2.56 µM (inactive); in the experiment on OVCAR-4, 2.01 µM (inactive); in the experiment on NCI-H460, 1.94 µM (inactive); in the experiment on RXF 393 it was 0.39 µM (active); in the experiment on SF-539, 0.252 µM (active). In addition, the GI50 in the experiment with SF-295 was 4.25 µM (inactive); in the experiment with SK-OV-3, 5.53 µM (inactive); with MDA-N, 3.4 µM (inactive); in the experiment with MDA-MB-435, 1.42 µM (inactive); in the experiment with NCI-H23, 0.746 µM (active); in the experiment with SN12C it was 0.953 µM (active). Also, the GI50 with CCRF-CEM was 0.233 µM (active); in the experiment on U-251 it was 1.99 µM (inactive); with OVCAR-8, 0.955 µM (active); with HCT-116, 1.33 µM (inactive); in the experiment with PC-3 it was 3.13 µM (inactive); in the experiment on Malme-3M it was 1.36 µM (inactive). The GI50 in the experiment with SNB-19 is 3.85 µM (inactive); in the experiment with UACC-62, 0.971 µM (active).
Take `CCOC(=O)c1nc2cc(C(F)(F)F)ccc2nc1Nc1ccc(Cl)c(Cl)c1`: the GI50 is > 100 µM (inactive) with MCF7; > 100 µM (inactive) with DU-145; 97.5 µM (inactive) in the experiment with OVCAR-4; 35.3 µM (inactive) in the experiment with NCI-H460; > 100 µM (inactive) with RXF 393; > 100 µM (inactive) in the experiment on SF-539. For the same molecule, the GI50 is 74.6 µM (inactive) with SF-295; 97.9 µM (inactive) in the experiment on SK-OV-3; > 100 µM (inactive) in the experiment on MDA-N; 62.7 µM (inactive) in the experiment on MDA-MB-435; > 100 µM (inactive) in the experiment with NCI-H23; > 100 µM (inactive) with SN12C. For the same molecule, the GI50 in the experiment on CCRF-CEM was 67.5 µM (inactive); in the experiment with U-251, 53.6 µM (inactive); in the experiment on OVCAR-8, > 100 µM (inactive); in the experiment with HCT-116, 69.7 µM (inactive); with PC-3, 75.2 µM (inactive); in the experiment on Malme-3M, > 100 µM (inactive). Besides, the GI50 with SNB-19 and in the experiment with UACC-62 was > 100 µM (inactive) in each case.
With `O=[N+]([O-])c1cc(C(F)(F)F)ccc1S(=O)(=O)N[C@@H]1CCCC[C@H]1NS(=O)(=O)c1ccc(C(F)(F)F)cc1[N+](=O)[O-]`, the GI50 in the experiment on MCF7 is 1.72 µM (inactive); with DU-145 it was 4.22 µM (inactive); with OVCAR-4, 2.61 µM (inactive); with NCI-H460 it was 3.57 µM (inactive); in the experiment on RXF 393 it was 2.45 µM (inactive); in the experiment with SF-539, 1.81 µM (inactive). In addition, the GI50 in the experiment with SF-295 is 2.86 µM (inactive); with SK-OV-3, 13.6 µM (inactive); in the experiment on MDA-N, 3.63 µM (inactive); with MDA-MB-435, 2.15 µM (inactive); in the experiment on NCI-H23, 2.28 µM (inactive); in the experiment with SN12C, 3.45 µM (inactive). For the same molecule, the GI50 was 2.72 µM (inactive) with CCRF-CEM; 3.37 µM (inactive) with U-251; 2.86 µM (inactive) in the experiment on OVCAR-8; 3.43 µM (inactive) with HCT-116; 3.11 µM (inactive) in the experiment on PC-3; 2.49 µM (inactive) with Malme-3M. For the same molecule, the values for the GI50 with SNB-19 and in the experiment on UACC-62 were 5.68 µM (inactive) and 3.81 µM (inactive), respectively.
With `CC1(C)[C@@H]2CC[C@]1(C)[C@H](OC(=O)/C=C/c1ccccc1)C2`, the GI50 in the experiment with MCF7 was 16.7 µM (inactive); in the experiment with DU-145, 19.4 µM (inactive); with OVCAR-4, 22 µM (inactive); in the experiment on NCI-H460, 29 µM (inactive); in the experiment with RXF 393, 16.9 µM (inactive); in the experiment on SF-539, 20.7 µM (inactive). Besides, the GI50 with SF-295 was 18 µM (inactive); in the experiment on SK-OV-3 it was 34.9 µM (inactive); in the experiment with MDA-N it was 31.3 µM (inactive); in the experiment with MDA-MB-435, 26 µM (inactive); in the experiment with NCI-H23 it was 21.7 µM (inactive); in the experiment on SN12C, 18.8 µM (inactive). Besides, the GI50 is 20.4 µM (inactive) in the experiment on CCRF-CEM; 17.7 µM (inactive) in the experiment with U-251; 20.8 µM (inactive) in the experiment with OVCAR-8; 18.4 µM (inactive) in the experiment with HCT-116; 23.4 µM (inactive) in the experiment with PC-3; 17.3 µM (inactive) with Malme-3M. The GI50 in the experiment with SNB-19 is 19.8 µM (inactive); with UACC-62, 21.2 µM (inactive).
`COc1ccccc1C1(c2c(OC)c(=O)c2=O)SCCCS1`: the GI50 in the experiment on MCF7 is > 100 µM (inactive); in the experiment with DU-145, > 100 µM (inactive); in the experiment with OVCAR-4 it was > 100 µM (inactive); in the experiment with NCI-H460, > 100 µM (inactive); in the experiment with RXF 393, 44.5 µM (inactive); with SF-539, > 100 µM (inactive). The GI50 in the experiment on SF-295 was 67 µM (inactive); with SK-OV-3, > 100 µM (inactive); with MDA-N it was > 100 µM (inactive); in the experiment with MDA-MB-435, > 100 µM (inactive); in the experiment with NCI-H23, 48.3 µM (inactive); in the experiment with SN12C, 36.6 µM (inactive). Further, the GI50 in the experiment with CCRF-CEM was 82.6 µM (inactive); with U-251, > 100 µM (inactive); in the experiment on OVCAR-8, 67.1 µM (inactive); with HCT-116, > 100 µM (inactive); in the experiment on PC-3, > 100 µM (inactive); with Malme-3M, 62.5 µM (inactive). Moreover, the results for the GI50 in the experiment with SNB-19 and with UACC-62 were 74 µM (inactive) and > 100 µM (inactive), respectively.
In the case of `CNC(=O)c1ccc(C(=O)NCCCCCN(O)C(=O)CCC(=O)NCCCCCN(O)C(=O)CCC(=O)NCCCCCN(O)C(C)=O)c(O)c1O`, the GI50 in the experiment with MCF7 was 48.2 µM (inactive); with DU-145, 55.1 µM (inactive); with OVCAR-4, 1.07 µM (active); in the experiment on NCI-H460, 36.1 µM (inactive); in the experiment on RXF 393, 32.3 µM (inactive); in the experiment with SF-539 it was 29 µM (inactive). The GI50 with SF-295 was 42.6 µM (inactive); with SK-OV-3 it was 45.4 µM (inactive); in the experiment with MDA-N, > 100 µM (inactive); in the experiment on MDA-MB-435, > 100 µM (inactive); in the experiment with NCI-H23, 65.9 µM (inactive); in the experiment with SN12C it was 94.6 µM (inactive). Also, the GI50 is 5 µM (inactive) in the experiment on CCRF-CEM; 33.9 µM (inactive) with U-251; 30.8 µM (inactive) with OVCAR-8; 32.9 µM (inactive) with HCT-116; 86.7 µM (inactive) with PC-3; 90.8 µM (inactive) in the experiment with Malme-3M. The results for the GI50 in the experiment on SNB-19 and in the experiment on UACC-62 were 62.7 µM (inactive) and 36.1 µM (inactive), respectively.
Turning to `Cn1c(-c2ccc[se]2)ccc1-c1ccc(CO)[se]1`, the GI50 in the experiment on MCF7 is 0.0139 µM (active); in the experiment on DU-145, 35.9 µM (inactive); in the experiment on OVCAR-4, 0.0392 µM (active); in the experiment on NCI-H460, 0.0206 µM (active); in the experiment on RXF 393 it was 0.239 µM (active); in the experiment with SF-539, 26.9 µM (inactive). In addition, the GI50 in the experiment on SF-295 is 31.3 µM (inactive); in the experiment on SK-OV-3 it was 17.1 µM (inactive); in the experiment with MDA-N, 18 µM (inactive); in the experiment on MDA-MB-435, 17.3 µM (inactive); in the experiment with NCI-H23, 24.9 µM (inactive); in the experiment on SN12C, > 76.6 µM (inactive). Moreover, the GI50 was 17.1 µM (inactive) with CCRF-CEM; < 0.0129 µM (active) in the experiment with U-251; 33.1 µM (inactive) in the experiment on OVCAR-8; 0.826 µM (active) in the experiment on HCT-116; 42.5 µM (inactive) in the experiment with PC-3; 10.2 µM (inactive) in the experiment with Malme-3M. The GI50 was > 46.5 µM (inactive) in the experiment with SNB-19 and 0.045 µM (active) with UACC-62.
